≈ marks a conversion by molar mass, not a printed value.
What was measured:
Mtb H37Rv = assay: MIC determination in Mtb H37Rv, Microdilution Alamar Blue Assay (MABA); type: cell-based, Mycobacterium tuberculosis; conditions: for MIC: Mtb H37Rv, MABA, 7 days
in vitro = conditions: human
[1] = HEK293T cytotoxicity assay (Cell Titer-Glo); type: cell-based; conditions: human, HEK293T cells; HEK293T, 3 days
Description: HEK293T (ATCC) were grown in DMEM (Gibco Cat # 11965-092) supplemented with 10% heat-inactivated FBS, Pen Strep (Gibco) 1X in a 5% CO2 humidified atmosphere at 37◦C. Cells were washed once with DPBS 1X (Gibco), incubated for less than 5 minutes at room temperature in TrypLE solution (Gibco), washed once in propagation medium to remove trypsin, and counted with Trypan Blue. 5 µL of cell suspension ([…]) was dispensed into 1536-well plates containing serial 3-fold drug dilution ranging from 40 µM to 2 nM and incubated for 3 days in a 5% CO2 humidified atmosphere at 37 ◦C. Cell Titer-Glo® Luminescent Cell Viability Assay (Promega) reagent was diluted 1:1 with water and then 2 µL were added to plates. Luminescence was measured in a PHERAStar plate reader (BMG Labtech) and data normalized to negative control (DMSO) minus inhibitor (Puromycin 10 µM). Dose-response curves were fit using the Smart Fit function in Genedata Screener Analyzer (v16.0.8).

[2] = Mycobacterium tuberculosis, H37RV, 168 h

| SMILES | MIC (Mtb H37Rv; [2]) [µM] | CC50 at 72 h (in vitro) [µM] | CC50 at 72 h [1] [µM] | MIC (Mtb H37Rv) [µM] | CC50 at 3 days [1] [µM] | CC50 (in vitro) [µM] | anti-TB activity against Mtb (in words) (Mtb H37Rv) |
| --- | --- | --- | --- | --- | --- | --- | --- |
| CN(c1ncn(-c2cc(F)c(COc3ccc(OS(=O)(=O)F)cc3)c(F)c2)n1)S(C)(=O)=O [Compound 21c, 4-((2,6-difluoro-4-(3-(N-methylmethylsulfonamido)-1H-1,2,4-triazol-1-yl)benzyl)oxy)phenyl sulfurofluoridate] | 0.31 (≈ 0.153 µg/mL) | 15.3 | – | – | – | – | – |
| CC(C)c1ncn(-c2cc(F)c(COc3ccc(OS(=O)(=O)F)cc3)c(F)c2)n1 [Compound 20c, 4-((2,6-difluoro-4-(3-isopropyl-1H-1,2,4-triazol-1-yl)benzyl)oxy)phenyl sulfurofluoridate] | 0.6 (≈ 0.256 µg/mL) | 12.4 | 16.7 | – | – | – | – |
| Cn1ccnc1-c1cc(F)c(COc2ccc(OS(=O)(=O)F)cc2)c(F)c1 [Compound 19e, 4-((2,6-difluoro-4-(1-methyl-1H-imidazol-2-yl)benzyl)oxy)phenyl sulfurofluoridate] | 1.25 (≈ 0.498 µg/mL) | 13.7 | 26 | – | – | – | – |
| O=S(=O)(F)Oc1ccc(OCc2cc(F)c(-n3cncn3)cc2F)cc1 [Compound 3 h, 4-((2,5-difluoro-4-(1H-1,2,4-triazol-1-yl)benzyl)oxy)phenyl sulfurofluoridate] | 1.25 (≈ 0.482 µg/mL) | 29.5 | 21.6 | – | – | – | – |
| CS(=O)(=O)c1ncn(-c2cc(F)c(COc3ccc(OS(=O)(=O)F)cc3)c(F)c2)n1 [Compound 20i, 4-((2,6-difluoro-4-(3-(methylsulfonyl)-1H-1,2,4-triazol-1-yl)benzyl)oxy)phenyl sulfurofluoridate] | 0.4 (≈ 0.185 µg/mL) | 9.3 | 17.2 | – | – | – | – |
| O=S(=O)(F)Oc1ccc(OCc2c(F)cc(-c3nnc[nH]3)cc2F)cc1 [Compound 19a, 4-((2,6-difluoro-4-(1H-1,2,4-triazol-3-yl)benzyl)oxy)phenylsulfurofluoridate] | < 1 | 19.3 | 14.7 | 0.9 (≈ 0.347 µg/mL) | – | – | – |
| O=S(=O)(F)Oc1ccc(OCc2c(F)cc(-n3cnnn3)cc2F)cc1 [Compound 19 g, 4-((2,6-difluoro-4-(1H-tetrazol-1-yl)benzyl)oxy)phenyl sulfurofluoridate] | 0.45 (≈ 0.174 µg/mL) | 12.1 | 13.2 | – | – | – | – |
| O=C(O)c1ncn(-c2cc(F)c(COc3ccc(OS(=O)(=O)F)cc3)c(F)c2)n1 [Compound 20j, 1-(3,5-difluoro-4-((4-((fluorosulfonyl)oxy)phenoxy)methyl)phenyl)-1H-1,2,4-triazole-3-carboxylic acid] | 1.25 (≈ 0.537 µg/mL) | – | – | – | > 40 | > 40 | – |
| CS(=O)(=O)Nc1ncn(-c2cc(F)c(COc3ccc(O)cc3)c(F)c2)n1 [Compound 21 g] | – | – | – | > 10 | – | – | no activity |
| N#Cc1ncn(-c2cc(F)c(COc3ccc(OS(=O)(=O)F)cc3)c(F)c2)n1 [Compound 20 g, 4-((4-(3-cyano-1H-1,2,4-triazol-1-yl)-2,6-difluorobenzyl)oxy)phenyl sulfurofluoridate] | 0.45 (≈ 0.185 µg/mL) | 10.3 | – | – | – | – | – |
| NS(=O)(=O)c1ncn(-c2cc(F)c(COc3ccc(OS(=O)(=O)F)cc3)c(F)c2)n1 [Compound 20 l, 4-((2,6-difluoro-4-(3-sulfamoyl-1H-1,2,4-triazol-1-yl)benzyl)oxy)phenyl sulfurofluoridate] | 0.47 (≈ 0.218 µg/mL) | – | – | – | – | > 40 | – |
| Cn1cnc(-c2cc(F)c(COc3ccc(OS(=O)(=O)F)cc3)c(F)c2)n1 [Compound 19b, 4-((2,6-difluoro-4-(1-methyl-1H-1,2,4-triazol-3-yl)benzyl)oxy)phenyl sulfurofluoridate] | 1.25 (≈ 0.499 µg/mL) | – | – | – | – | > 40 | – |
| CCS(=O)(=O)Nc1ncn(-c2cc(F)c(COc3ccc(OS(=O)(=O)F)cc3)c(F)c2)n1 [Compound 21d, 4-((4-(3-(ethylsulfonamido)-1H-1,2,4-triazol-1-yl)-2,6-difluorobenzyl)oxy)phenyl sulfurofluoridate] | 0.08 (≈ 0.0394 µg/mL) | – | – | – | – | > 40 | – |
